One test addresses T1, Human Calpain 1/NS1 (Homo sapiens, UniProt P07384).
T1 sequence (P07384 1-714): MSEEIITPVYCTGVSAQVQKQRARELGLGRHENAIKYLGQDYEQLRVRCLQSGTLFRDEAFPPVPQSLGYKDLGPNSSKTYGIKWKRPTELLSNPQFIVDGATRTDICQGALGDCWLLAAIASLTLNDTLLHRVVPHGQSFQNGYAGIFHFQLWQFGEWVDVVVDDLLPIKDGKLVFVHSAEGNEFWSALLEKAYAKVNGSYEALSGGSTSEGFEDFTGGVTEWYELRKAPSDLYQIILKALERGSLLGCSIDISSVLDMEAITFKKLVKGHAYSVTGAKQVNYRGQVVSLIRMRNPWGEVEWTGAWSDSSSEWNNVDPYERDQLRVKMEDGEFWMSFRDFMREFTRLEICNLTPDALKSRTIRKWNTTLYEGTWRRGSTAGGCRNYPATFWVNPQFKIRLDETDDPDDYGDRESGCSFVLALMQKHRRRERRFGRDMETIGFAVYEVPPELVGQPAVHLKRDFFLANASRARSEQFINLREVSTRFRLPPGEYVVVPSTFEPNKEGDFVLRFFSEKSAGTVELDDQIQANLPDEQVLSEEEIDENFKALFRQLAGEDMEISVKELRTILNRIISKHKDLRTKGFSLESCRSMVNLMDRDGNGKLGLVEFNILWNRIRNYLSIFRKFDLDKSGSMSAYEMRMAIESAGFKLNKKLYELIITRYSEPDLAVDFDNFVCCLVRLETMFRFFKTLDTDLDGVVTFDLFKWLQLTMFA
T1 sequence (P04632 1-268 partner): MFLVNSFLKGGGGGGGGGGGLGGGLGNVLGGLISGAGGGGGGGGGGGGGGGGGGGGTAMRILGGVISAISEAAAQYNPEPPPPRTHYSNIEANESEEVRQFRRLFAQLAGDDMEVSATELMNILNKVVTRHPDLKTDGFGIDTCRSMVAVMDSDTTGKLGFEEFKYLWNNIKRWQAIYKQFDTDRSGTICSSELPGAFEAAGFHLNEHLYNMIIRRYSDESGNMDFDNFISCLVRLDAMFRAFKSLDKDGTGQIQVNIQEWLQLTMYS
Put plainly: Calpain inhibition, continuous fluorescence (FRET substrate) assay, calpain 1. It is filed as biochemical. The following applies: SensoLyte 520 FRET substrate, 25C. Summed up: (§1)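 Calpains preincubated with serially diluted inhibitors at 25 °C in 50 mM Tris pH 7.5, 100 mM NaCl, 1 mM DTT; CaCl2 plus 5-FAM/QXL 520 FRET substrate started the reaction. Fluorescence (490/520 nm) read 10 min; rates from 1-5 min slopes, IC50 from 4-parameter logistic fit.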

Another test has as its target T2, Human Calpain 2/NS1 (Homo sapiens, UniProt P17655).
T2 sequence (P17655 1-700): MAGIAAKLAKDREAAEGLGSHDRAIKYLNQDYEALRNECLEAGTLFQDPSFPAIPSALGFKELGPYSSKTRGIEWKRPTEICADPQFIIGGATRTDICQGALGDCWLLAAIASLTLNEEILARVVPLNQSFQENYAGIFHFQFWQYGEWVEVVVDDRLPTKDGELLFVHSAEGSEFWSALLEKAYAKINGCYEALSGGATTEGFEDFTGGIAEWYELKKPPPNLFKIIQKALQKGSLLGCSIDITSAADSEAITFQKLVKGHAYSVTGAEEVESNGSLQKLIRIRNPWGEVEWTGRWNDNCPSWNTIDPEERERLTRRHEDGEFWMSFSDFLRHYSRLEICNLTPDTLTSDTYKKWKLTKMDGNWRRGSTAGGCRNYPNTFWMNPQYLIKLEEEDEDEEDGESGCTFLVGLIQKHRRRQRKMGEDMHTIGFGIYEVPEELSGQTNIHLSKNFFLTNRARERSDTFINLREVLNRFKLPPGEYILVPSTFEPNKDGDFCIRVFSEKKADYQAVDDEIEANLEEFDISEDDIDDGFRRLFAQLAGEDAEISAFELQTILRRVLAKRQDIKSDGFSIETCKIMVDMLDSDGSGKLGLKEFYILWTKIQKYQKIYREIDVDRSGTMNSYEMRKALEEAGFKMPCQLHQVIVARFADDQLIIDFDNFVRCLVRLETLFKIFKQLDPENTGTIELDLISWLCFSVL
T2 sequence (P04632 1-268 partner): T1 sequence (P04632 1-268 partner)
Put plainly: Calpain inhibition, continuous fluorescence (FRET substrate) assay, calpain 2. Format: biochemical. The following applies: SensoLyte 520 FRET substrate, 25C. Summed up: as §1

The target in the next test is T3, Human Calpain 9/NS1 (Homo sapiens, UniProt O14815).
T3 sequence (O14815 1-690): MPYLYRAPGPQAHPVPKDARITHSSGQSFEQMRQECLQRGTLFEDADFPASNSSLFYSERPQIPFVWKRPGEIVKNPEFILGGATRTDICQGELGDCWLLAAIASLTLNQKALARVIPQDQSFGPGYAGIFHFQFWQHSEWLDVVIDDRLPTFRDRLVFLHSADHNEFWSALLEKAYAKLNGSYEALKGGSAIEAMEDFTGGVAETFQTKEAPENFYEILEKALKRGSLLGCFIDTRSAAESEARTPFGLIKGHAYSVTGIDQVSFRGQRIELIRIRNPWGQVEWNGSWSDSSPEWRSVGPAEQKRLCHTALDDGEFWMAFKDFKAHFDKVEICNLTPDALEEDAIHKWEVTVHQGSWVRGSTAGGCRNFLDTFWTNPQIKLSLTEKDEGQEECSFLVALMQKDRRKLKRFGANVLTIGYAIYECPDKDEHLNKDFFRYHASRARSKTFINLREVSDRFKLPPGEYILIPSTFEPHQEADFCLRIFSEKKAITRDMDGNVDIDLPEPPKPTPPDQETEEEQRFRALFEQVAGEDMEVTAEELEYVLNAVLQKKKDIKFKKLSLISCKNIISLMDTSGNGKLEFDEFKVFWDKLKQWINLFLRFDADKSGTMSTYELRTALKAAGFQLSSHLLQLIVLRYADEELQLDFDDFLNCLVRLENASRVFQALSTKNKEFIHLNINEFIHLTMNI
T3 sequence (P04632 1-268 partner): T1 sequence (P04632 1-268 partner)
Put plainly: Calpain inhibition, continuous fluorescence (FRET substrate) assay, calpain 9. Format: biochemical. Particulars: SensoLyte 520 FRET substrate, 25C. Summed up:
as §1

Test [1] deals with Calpain activity in SH-SY5Y cells. Put plainly: SH-SY5Y spectrin breakdown product (SBDP-150) western blot assay. It is filed as cell-based. The following applies: Homo sapiens; SH-SY5Y cells, 25 uM A23187, SBDP-150 western blot; read-out: SH-SY5Y Spectrin IC50. For orientation: Immunoblotting shows a protein as a band on a membrane.
Test [2] has the same test system. Put plainly: SH-SY5Y Suc-LLVY-AMC fluorescence assay. It is filed as cell-based. Particulars: Homo sapiens; SH-SY5Y cells, 100 uM Suc-LLVY-AMC; read-out: SH-SY5Y + AMC IC50.

Structures are written as SMILES.

`Cc1nc(-c2coc(Cl)c2)c(C(=O)NC(Cc2ccccc2)C(=O)C(N)=O)o1` (centres unmarked) [Compound 92, N-(4-AMINO-3,4-DIOXO-1-PHENYLBUTAN-2-YL)-4-(5-CHLOROFURAN-3-YL)-2-METHYLOXAZOLE-5-CARBOXAMIDE]: the IC50 – broadly, the concentration needed to halve the response being measured – was below 3 µM against Human Calpain 1/NS1; below 3 µM at Human Calpain 2/NS1; below 3 µM against Human Calpain 9/NS1; 10 to 25 µM in test [1]; below 10 µM in test [2].

Turning to `CC(C)n1ncc2c(-c3nn(C)cc3C(=O)NC(Cc3ccccc3)C(=O)C(N)=O)cccc21` (centres unmarked) [Compound 100, N-(4-AMINO-3,4-DIOXO-1-PHENYLBUTAN-2-YL)-3-(1-ISOPROPYL-1H-INDAZOL-4-YL)-1-METHYL-1H-PYRAZOLE-4-CARBOXAMIDE], the IC50 was below 3 µM against Human Calpain 1/NS1; below 3 µM at Human Calpain 2/NS1; below 3 µM against Human Calpain 9/NS1; 10 to 25 µM in test [1]; 10 to 25 µM in test [2].

On to `Cc1cc(-c2nn(C(F)F)cc2C(=O)NC(Cc2ccccc2)C(=O)C(N)=O)c(C)o1` (centres unmarked) [Compound 24, N-(4-AMINO-3,4-DIOXO-1-PHENYLBUTAN-2-YL)-1-(DIFLUOROMETHYL)-3-(2,5-DIMETHYLFURAN-3-YL)-1H-PYRAZOLE-4-CARBOXAMIDE], for which the IC50 against Human Calpain 1/NS1 is below 3 µM; against Human Calpain 2/NS1, below 3 µM; on Human Calpain 9/NS1 it was below 3 µM; in test [1] it was 10 to 25 µM; in test [2], below 10 µM.

`NC(=O)C(=O)C(Cc1ccccc1)NC(=O)c1cn(C(F)F)nc1-c1cccc2scnc12` (centres unmarked) [Compound 70, N-(4-AMINO-3,4-DIOXO-1-PHENYLBUTAN-2-YL)-3-(BENZO[D]THIAZOL-4-YL)-1-(DIFLUOROMETHYL)-1H-PYRAZOLE-4-CARBOXAMIDE]: the half-inhibitory concentration (IC50) against Human Calpain 1/NS1 is below 3 µM; against Human Calpain 2/NS1, below 3 µM; against Human Calpain 9/NS1 it was below 3 µM; in test [1], below 10 µM; in test [2], below 10 µM.

As to `NC(=O)C(=O)C(Cc1ccccc1)NC(=O)c1cn(C(F)F)nc1-c1cccc2ocnc12` (centres unmarked) [Compound 71, N-(4-AMINO-3,4-DIOXO-1-PHENYLBUTAN-2-YL)-3-(BENZO[D]OXAZOL-4-YL)-1-(DIFLUOROMETHYL)-1H-PYRAZOLE-4-CARBOXAMIDE], the IC50 was below 3 µM at Human Calpain 1/NS1; below 3 µM against Human Calpain 2/NS1; below 3 µM against Human Calpain 9/NS1; below 10 µM in test [1]; below 10 µM in test [2].

Regarding `Cn1cc2c(-c3nn(C(F)F)cc3C(=O)NC(Cc3ccccc3)C(=O)C(N)=O)cccc2n1` (centres unmarked) [Compound 61, N-(4-AMINO-3,4-DIOXO-1-PHENYLBUTAN-2-YL)-1-(DIFLUOROMETHYL)-3-(2-METHYL-2H-INDAZOL-4-YL)-1H-PYRAZOLE-4-CARBOXAMIDE], the IC50 on Human Calpain 1/NS1 is below 3 µM; against Human Calpain 2/NS1, below 3 µM; against Human Calpain 9/NS1, below 3 µM; in test [1] it was below 10 µM; in test [2] it was below 10 µM.

With `Cn1cc(C(=O)NC(Cc2ccccc2)C(=O)C(N)=O)c(-c2cccc3ncoc23)n1` (centres unmarked) [Compound 31, N-(4-AMINO-3,4-DIOXO-1-PHENYLBUTAN-2-YL)-3-(BENZO[D]OXAZOL-7-YL)-1-METHYL-1H-PYRAZOLE-4-CARBOXAMIDE], the IC50 against Human Calpain 1/NS1 was below 3 µM; against Human Calpain 2/NS1, below 3 µM; against Human Calpain 9/NS1, below 3 µM; in test [1] it was below 10 µM; in test [2] it was below 10 µM.

Values taken from patent US20210009564A1, “CALPAIN MODULATORS AND THERAPEUTIC USES THEREOF” (BLADE THERAPERTICS, INC., priority 2018, published 2021).
